The record followed here is ChEMBL document CHEMBL1201862, “PubChem BioAssay data set” (2004).

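These data come from cells grown in 96-well plates and exposed to compound for 48 hours at five concentrations. Abbreviation: GI50, concentration required for 50% inhibition of growth.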 Active and inactive are the calls of the source. No stated cut-off is given here; in the data, active = GI50 up to about 1.1 µM and inactive = higher.

What all share (experiment): NCI anticancer screen, dose series, 48 h
The subject of assay [1] is NCI/ADR-RES.
Assay [2] relates to UACC-257.
For assay [3], the system named is SNB-75.
In assay [4] the test system is M14.
Assay [5] has as its system BT-549.
Assay [6] deals with HOP-62.
Assay [7] concerns DU-145.
For assay [8], the system named is SNB-19.
Assay [9] deals with OVCAR-4.
For assay [10], the system named is TK-10.
Assay [11] relates to 786-0.
Assay [12] deals with CAKI-1.
Assay [13] deals with SK-MEL-2.
Assay [14] concerns LOX IMVI.
For assay [15], the system named is PC-3.
Assay [16] deals with SF-268.
Assay [17] relates to A549.
For assay [18], the system named is OVCAR-3.
Assay [19] concerns NCI-H226.
In assay [20] the test system is HL-60.

On to `O=c1nc(Oc2c(F)c(F)c(F)c(F)c2F)ccn1C1OC(CO)C(O)C1O` (stereo not drawn), for which the GI50 in assay [1], in assay [2], in assay [3], in assay [4], in [5] and in assay [6] was > 100 µM (inactive) each time. For the same compound, the GI50 in assay [7], in assay [8], in assay [9], in [10], in assay [11] and in [12] was > 100 µM (inactive) throughout. The GI50 in assay [13] is > 100 µM (inactive); in assay [14], > 100 µM (inactive); in assay [15], > 100 µM (inactive); in assay [16] it was > 100 µM (inactive); in [17] it was > 100 µM (inactive); in assay [18], 53.8 µM (inactive).

In the case of `O=C(N/N=C/C=C/c1ccccc1)c1ccccc1Nc1ccccc1C(=O)N/N=C/C=C/c1ccccc1`, the GI50 in assay [1] is > 100 µM (inactive); in assay [2], > 100 µM (inactive); in assay [3], 21.4 µM (inactive); in assay [4] it was 48 µM (inactive); in assay [5] it was > 100 µM (inactive); in assay [6], 3.58 µM (inactive). Further, the GI50 in assay [7] was > 100 µM (inactive); in assay [19], > 100 µM (inactive); in [8], 11.9 µM (inactive); in assay [9], 67.9 µM (inactive); in assay [10], > 100 µM (inactive); in assay [20] it was > 100 µM (inactive). Also, the GI50 in assay [11] was > 100 µM (inactive); in assay [12], > 100 µM (inactive); in assay [13], 59.4 µM (inactive); in assay [15], > 100 µM (inactive); in assay [16] it was 34.4 µM (inactive); in assay [17], > 100 µM (inactive). For the same compound, in [18], the GI50 is > 100 µM (inactive).

Turning to `Cc1[nH]c2ncn3nc(C(Cl)(Cl)Cl)nc3c2c1Cc1ccccc1`, the GI50 in assay [1], in [2], in assay [3], in [4], in assay [5] and in [6] was > 100 µM (inactive) in each case. For the same compound, the GI50 in [7], in [19], in assay [8], in assay [9], in [10] and in [20] was > 100 µM (inactive) each time. The GI50 in assay [11], in assay [12], in assay [13], in assay [15], in assay [16] and in assay [17] was > 100 µM (inactive) in each case. Also, in assay [18], the GI50 is > 100 µM (inactive).

For the compound `C=CCNC1=C2C[C@@H](C)C[C@@H](OC)[C@H](OC(=O)CN(C)C)[C@H](C)/C=C(\C)[C@@H](OC(N)=O)[C@H](OC)/C=C\C=C(/C)C(=O)NC(=CC1=O)C2=O`, the GI50 in assay [1] was 8.22 µM (inactive); in assay [2], 0.0748 µM (active); in assay [3], 0.114 µM (active); in assay [4], 0.0485 µM (active); in assay [5], 4.72 µM (inactive); in assay [6], 0.0604 µM (active). Moreover, the GI50 in assay [7] was < 0.01 µM (active); in [8], 0.585 µM (active); in [9] it was 3.41 µM (inactive); in assay [10] it was 0.0543 µM (active); in assay [20] it was 0.406 µM (active); in assay [11], 0.671 µM (active). Moreover, the GI50 in assay [12] was 1.29 µM (inactive); in [13] it was 0.0608 µM (active); in assay [14], 0.0641 µM (active); in assay [15] it was 0.0495 µM (active); in assay [16], 2.54 µM (inactive); in [17], 0.0562 µM (active). In assay [18], the GI50 was 0.286 µM (active).

Regarding `CCCCOP(=O)(OCCCC)/C(C#N)=C/c1ccc(C)o1`, the GI50 in assay [1] is 15.5 µM (inactive); in assay [2] it was 27.4 µM (inactive); in assay [3], 35.3 µM (inactive); in [4] it was 28.2 µM (inactive); in [5], 19.1 µM (inactive); in assay [6], > 100 µM (inactive). The GI50 in [7] was > 100 µM (inactive); in assay [19], 28 µM (inactive); in [8], > 100 µM (inactive); in assay [9], 46.8 µM (inactive); in assay [10], > 100 µM (inactive); in assay [11], 37.1 µM (inactive). For the same compound, the GI50 in assay [12] was 60.5 µM (inactive); in assay [13], 31 µM (inactive); in assay [14], 59 µM (inactive); in assay [15] it was 23.9 µM (inactive); in [16], 63.4 µM (inactive); in [17], 47.2 µM (inactive). Also, the GI50 in assay [18] was 14.5 µM (inactive).

`COc1cc(S(=O)(=O)Nc2nc(-c3ccc(N4C(=O)/C(=C/c5ccccc5)N=C4c4ccccc4)cc3)cs2)ccc1Cl`: the GI50 in assay [1] is > 100 µM (inactive); in assay [2], 55.2 µM (inactive); in assay [3] it was 39.6 µM (inactive); in assay [4], 56.4 µM (inactive); in assay [5], 38.5 µM (inactive); in assay [6] it was 29 µM (inactive). For the same compound, the GI50 in [7] is > 100 µM (inactive); in [19], 62.5 µM (inactive); in assay [8], 50.6 µM (inactive); in assay [9], 31.3 µM (inactive); in assay [10] it was > 100 µM (inactive); in assay [11], 63.5 µM (inactive). Besides, the GI50 in assay [12] is > 100 µM (inactive); in assay [13], 24.6 µM (inactive); in assay [14], 34.5 µM (inactive); in assay [15], 36.6 µM (inactive); in [16], 25 µM (inactive); in [17] it was > 100 µM (inactive). Further, the GI50 in assay [18] is 11.9 µM (inactive).

As to `COc1ccc(C(=O)C#Cc2cn(C3CC(O)C(CO)O3)c(=O)[nH]c2=O)cc1` (stereo not drawn), the GI50 in assay [1] is 42.6 µM (inactive); in assay [2], 94.8 µM (inactive); in [3] it was > 100 µM (inactive); in assay [4] it was 17.9 µM (inactive); in assay [5], 20.2 µM (inactive); in [6], > 100 µM (inactive). Besides, the GI50 was > 100 µM (inactive) in assay [7]; 32 µM (inactive) in [19]; > 100 µM (inactive) in assay [8]; 48.6 µM (inactive) in assay [9]; 78.3 µM (inactive) in [10]; > 10 µM (inactive) in assay [20]. The GI50 in assay [11] is 49.7 µM (inactive); in assay [12], > 100 µM (inactive); in assay [13], 56.4 µM (inactive); in [15] it was > 100 µM (inactive); in assay [16], 53 µM (inactive); in assay [17], > 100 µM (inactive). Moreover, the GI50 in assay [18] is 19.2 µM (inactive).

With `O1C2C1C1OC1C1OC1C1OC21` (stereo not drawn), the GI50 in assay [1] was > 100 µM (inactive); in assay [2] it was > 100 µM (inactive); in [3] it was 46.6 µM (inactive); in assay [4] it was > 100 µM (inactive); in assay [5], > 100 µM (inactive); in assay [6] it was > 100 µM (inactive). For the same compound, the GI50 in [7], in assay [19], in assay [8], in assay [9], in assay [10] and in assay [11] was > 100 µM (inactive) throughout. For the same compound, the GI50 in [12], in [13], in assay [14], in assay [15], in assay [16] and in assay [17] was > 100 µM (inactive) each time.

With `O=c1[nH]nc(Nc2ccccc2)c2nnn(C3CCCCC3)c12`, the GI50 in assay [1], in assay [2], in assay [4], in [5], in assay [6] and in [7] was > 100 µM (inactive) throughout. The GI50 in [8], in assay [9], in [10], in assay [20], in assay [11] and in [12] was > 100 µM (inactive) each time. For the same compound, the GI50 in assay [13], in assay [14], in [15], in assay [17] and in [18] was > 100 µM (inactive) throughout.

Consider `O=C(CN1CCOCC1)Nc1ccc2c(c1)C1Oc3ccccc3CC1CO2` (stereo not drawn), for which the GI50 in assay [1] is > 100 µM (inactive); in assay [2], > 100 µM (inactive); in [4], > 100 µM (inactive); in assay [5] it was 38.1 µM (inactive); in assay [6], > 100 µM (inactive); in assay [7], > 100 µM (inactive). Further, the GI50 in [19], in assay [8], in assay [10], in [11], in [12] and in [13] was > 100 µM (inactive) each time. The GI50 in [14], in [15], in assay [16], in assay [17] and in [18] was > 100 µM (inactive) each time.

Regarding `Oc1c(/N=N/c2ccccc2)c2ccccc2c2ccc3ccccc3c12`, the GI50 is > 100 µM (inactive) in assay [1]; > 100 µM (inactive) in assay [2]; 64.1 µM (inactive) in assay [3]; 57.5 µM (inactive) in assay [4]; 73.8 µM (inactive) in assay [5]; 43.6 µM (inactive) in assay [6]. Also, the GI50 in assay [7] was > 100 µM (inactive); in assay [19], > 100 µM (inactive); in assay [8], > 100 µM (inactive); in [9], 33.2 µM (inactive); in assay [10], > 100 µM (inactive); in assay [20], 47.3 µM (inactive). Also, the GI50 in assay [11] is 44.6 µM (inactive); in [12] it was 48.6 µM (inactive); in assay [13], > 100 µM (inactive); in assay [15], 73.8 µM (inactive); in [16], > 100 µM (inactive); in assay [17], 43.2 µM (inactive). The GI50 in [18] was > 100 µM (inactive).
